This is an account of results in patent US6113896A, “Pharmaceutical compositions containing ecotin and homologs thereof” (priority 1994, dated 2000).

Where “and” joins values, the source holds several entries; their conditions need not be identical. Equal entries are not always repeated. Entries after “also recorded” stand apart in the source; their conditions may differ.

In one assay the test system is plasmin. The assay can be described thus: Specificity assay, plasmin. The assay is classed as biochemical, human. As to conditions: for Percent Activity of Plasmin: 100 nM inhibitor, ~1 h, 15 nM enzyme. How it is done: (§1) Specificity Assays The following assays were used to test the specificity of ecotin and the M84K and M84R mutants against various proteases. Ecotin, M84K, M84R (100 nM each), or a control blank were incubated at room temperature for ~1 h with each enzyme. The enzymes tested (enzyme concentration, buffer, substrate) were FXa (1.2 nM, Buffer A, 0.7 mM Spectrozyme fXa), thrombin (3.7 nM, Buffer A, 0.7 mM S2366), TF.cndot.FVIIa (12.0 nM, Buffer B, 0.7 mM S2366), FXIa (1.2 nM, Buffer A containing 1 mg/ml BSA, 0.7 mM S2366), activated protein C (4.3 nM, Buffer A, 0.7 mM S2366), plasmin (15 nM, Buffer A, 1 mM S2251), single chain t-PA (15 nM, Buffer A, 2.5 mM S2288), Factor XIIa (10 nM, Buffer A, 0.5 mM S2302, plasma kallikrein (10 nM, Buffer A, 0.5 mM S2302), HLE (17 nM, 0.1 M Tris, pH 7.5, 0.5 M NaCl and 0.005 % Triton X-100, 0.42 mM MeOSuc-AAPV-pNA) (SEQ ID NO:9), bovine trypsin (10 nM, Buffer A, 0.25 mM Spectrozyme fXa), and bovine chymotrypsin (10 nM, Buffer A, 1 mM Suc-AAPF-pNA) (SEQ ID NO:10). Buffer A contains 50 mM Tris, pH 7.5, 100 mM NaCl, 2 mM CaCl2 and 0.005% Triton X-100. Buffer B contains 50 mM Tris, pH 7.5, 100 mM NaCl, 10 mM CaCl2, 0.5% BSA, 60 nM TF1-243,and 1 mM CHAPS. The initial change in absorbance at 405 nm was monitored after addition of substrate. Controls lacking inhibitor and/or enzyme were also assayed to assess the uninhibited rates and the background substrate hydrolysis rates, respectively.

Another assay relates to bovine chymotrypsin. The assay can be described thus: Specificity assay, bovine chymotrypsin. The assay is classed as biochemical. As to conditions: for Percent Activity of Chymotrypsin: 100 nM inhibitor, ~1 h, 10 nM enzyme; for inhibition of bovine chymotrypsin, in words: text statement. How it is done:
as §1

A further assay has as its system HLE. In words: Specificity assay, HLE. The assay is classed as biochemical, human. As to conditions: for Percent Activity of HLE: 100 nM inhibitor, ~1 h, 17 nM enzyme. How it is done:
as §1

The subject of another assay is bovine trypsin. The assay can be described thus: Specificity assay, bovine trypsin. The assay is classed as biochemical. As to conditions: for Percent Activity of Trypsin: 100 nM inhibitor, ~1 h, 10 nM enzyme; for inhibition of bovine trypsin, in words: text statement. How it is done:
as §1

Another assay relates to FXa. The assay can be described thus: Specificity assay, FXa. It counts as biochemical, human. As to conditions: 100 nM inhibitor, ~1 h, 1.2 nM enzyme. How it is done: as §1
Another assay has as its system human FXa. The assay can be described thus: Equilibrium inhibition constant with Factor Xa (tight-binding analysis). As to conditions: for inhibition of FXa, in words: compared with wild type. It counts as biochemical. How it is done: Determination of Equilibrium Inhibition Constants Apparent Ki values (Ki *) for the inhibition of the enzymes tested by ecotin and mutants were measured as follows. All reactions were performed at 25° C. Stock solutions of trypsin were quantitated by active site burst titration with MUGB as previously described (Jameson, G. W. et al., Biochem. J. 131:107-117 [1973]) using a Fluoroskan II plate reader at excitation wavelength of 355 nm and emission wavelength of 460 nm. Data was collected on a Macintosh SE20 using either Delta Soft II Fl v3.31 software (BioMetallics). Active site titrated trypsin was then used to quantitate ecotin active sites using BAPA as the substrate; a stoichiometry of 1:1 was assumed (Chung, C. H. et al., supra). Factor Xa, Factor XIIa, plasma kallikrein, or HLE were then quantitated by active site titration using ecotin as a standard, again assuming 1:1 stoichiometry. In addition, the concentration of HLE was quantitated by methods previously described using a calibrated stock of α1 -proteinase inhibitor to titrate the HLE active sites (Beatty, K. et al., J. Biol. Chem. 255:3931-3934 [1980]); the same HLE active site concentration was determined using both ecotin and α1 -proteinase inhibitor. The substate for FXa was Spectrozyme fXa (0.5 mM); the substrate for FXIIa (0.5 mM) and plasma kallikrein was S2302 (0.5 mM); the substrate for HLE was MeOSuc-Ala-Ala-Pro-Val-pNA (0.4 mM). There was good agreement upon comparison of the protein concentrations determined by amino acid analysis, Bradford analysis (Bradford, M. M. Anal. Biochem. 72:248-254 (1976) or active site titrations for trypsin, ecotin, FXa, FXIIa, plasma kallikrein, and HLE.
Therefore, apparent equilibrium dissociation values (Ki *) were determined using methods derived for tight-binding inhibitors (Morrison, J. F. Biochim. Biophys. Acta 185:269-286 [1969]), (Bieth, J. in Proteinase Inhibitors (Fritz, H., Tschesche, H., Greene, L. J. and Truscheit, E., Ed.) pp 463-469, Springer-Verlag, New York [1974]). Data were fit by nonlinear regression analysis to equation 1 and values for Ki * were determined. [formula] where α is the fractional activity (steady-state inhibited rate divided by the uninhibited rate), [Eo ] is the total enzyme concentration, and [Io ] is the total ecotin concentration. Since the inhibitor and substrate compete for the same site, the true Ki value is related to Ki^* by the expression Ki =Ki */(1+[S]/Km), where Km is the Michaelis constant for the substrate, and [S] is the substrate concentration.
a. […] Following a 1 hour incubation at room temperature to reach equilibration of the enzyme.cndot.inhibitor complex, 20 μl of 5 mM Spectrozyme fXa was added, and the steady-state rate of product formation measured by monitoring the change in absorbance at 405 nm. The Km for Spectrozyme fXa with FXa under these conditions was determined to be 0.23 mM by linear regression analysis of Lineweaver-Burke plots.

For a further assay, the system named is plasma kallikrein. In words: Specificity assay, plasma kallikrein. The assay is classed as biochemical, human. As to conditions: for Percent Activity of Kallikrein: 100 nM inhibitor, ~1 h, 10 nM enzyme. How it is done:
as §1

On to M84R, for which the “Percent Activity of Plasmin” value in the assay with plasmin came to 10%. Moreover, the “inhibition of plasmin, in words” value was “significantly inhibited” in the assay on plasmin (listed as P1 Arg mutant) and “significant inhibition” in the assay with plasmin (text statement). Besides, in the assay with bovine chymotrypsin, the “Percent Activity of Chymotrypsin” value stood at 0%. Besides, the “inhibition of bovine chymotrypsin, in words” value in the assay with bovine chymotrypsin is reported as “significantly inhibited”. Also, the “Percent Activity of HLE” value with HLE is reported as 88%. For the same substance, the “inhibition of HLE, in words” value with HLE (listed as P1 Arg mutant) is “did not inhibit”; with HLE (text statement) it was “effectively diminished inhibition; also recorded: no longer inhibited”. Also, the “Percent Activity of Trypsin” value with bovine trypsin amounted to 0%. For the same substance, the “inhibition of bovine trypsin, in words” value in the assay on bovine trypsin is reported as “significantly inhibited”. Besides, in the assay with FXa, the “Percent Activity of Factor Xa” value is on record as 1%. Moreover, the “inhibition of FXa, in words” value in the assay on human FXa is reported as “slightly more potent as FXa inhibitors; also recorded: slightly more potent than the wild type inhibitor”. In addition, the “Percent Activity of Kallikrein” value in the assay on plasma kallikrein worked out at 1%. Moreover, the “inhibition of plasma kallikrein, in words” value is listed as “significantly inhibited” with plasma kallikrein (listed as P1 Arg mutant) and “still potently inhibited” with plasma kallikrein (text statement).
Turning to M84K, the “Percent Activity of Plasmin” value in the assay on plasmin is reported as 9%. The “inhibition of plasmin, in words” value is “significantly inhibited” in the assay with plasmin (listed as P1 Lys mutant) and “significant inhibition” in the assay on plasmin (text statement). Moreover, the “Percent Activity of Chymotrypsin” value with bovine chymotrypsin is 1%. In addition, the “inhibition of bovine chymotrypsin, in words” value in the assay on bovine chymotrypsin is reported as “significantly inhibited”. In the assay with HLE, the “Percent Activity of HLE” value stood at 85%. Besides, the “inhibition of HLE, in words” value is recorded as “did not inhibit” in the assay with HLE (listed as P1 Lys mutant) and “effectively diminished inhibition; also recorded: no longer inhibited” in the assay with HLE (text statement). Further, the “Percent Activity of Trypsin” value in the assay on bovine trypsin is given as 0%. Further, in the assay on bovine trypsin, the “inhibition of bovine trypsin, in words” value is “significantly inhibited”. For the same substance, the “Percent Activity of Factor Xa” value with FXa was 2%. In addition, the “inhibition of FXa, in words” value in the assay with human FXa is “slightly more potent as FXa inhibitors; also recorded: slightly more potent than the wild type inhibitor”. Also, the “Percent Activity of Kallikrein” value in the assay with plasma kallikrein worked out at 2%. The results for the “inhibition of plasma kallikrein, in words” value in the assay with plasma kallikrein (listed as P1 Lys mutant) and in the assay on plasma kallikrein (text statement) were “significantly inhibited” and “still potently inhibited”, respectively.
“Ecotin: E. coli periplasmic protein having the 142 amino acid residue sequence reported by McGrath et al.; recombinant, P1 Met84”: the “Percent Activity of Plasmin” value in the assay with plasmin is recorded as 100%. In addition, the “inhibition of plasmin, in words” value with plasmin (text statement) was “did not effectively inhibit”; in the assay with plasmin (text statement, listed as ecotin) it was “little or no inhibition”. Besides, in the assay on bovine chymotrypsin, the “Percent Activity of Chymotrypsin” value is 0%. Also, in the assay on HLE, the “Percent Activity of HLE” value amounted to 0%. Moreover, in the assay on HLE (text statement), the “inhibition of HLE, in words” value was “potently inhibited”. In addition, the “Percent Activity of Trypsin” value with bovine trypsin turned out to be 0%. For the same substance, the “Percent Activity of Factor Xa” value in the assay with FXa turned out to be 0%. Besides, the Ki at human FXa (apparent value, 0.5 mM Spectrozyme fXa, read-out: Ki* (apparent equilibrium dissociation value) with FXa) is 0.054 nM and 0.047 nM. In the assay on plasma kallikrein, the “Percent Activity of Kallikrein” value worked out at 0%. Further, the “inhibition of plasma kallikrein, in words” value in the assay on plasma kallikrein (text statement) was “potently inhibited”.
